Measurements: US9133168B2, “Pyrimidine derivatives, preparation thereof, and pharmaceutical use thereof as akt(pkb) phosphorylation inhibitors” (SANOFI, priority 2010, dated 2015)
pIC50: −log10 of the molar value.

Tested on: AKT protein phosphorylated on serine 473 (P-AKT-S473) in PC3 human prostate carcinoma cells
Experiment: pAKT expression in PC3 human prostate carcinoma cells, MSD Multi-spot Biomarker detection (Test A)
Assay type: cell-based
Settings: Homo sapiens, PC-3, PC3 cells, 1 to 2 h incubation, P-AKT-S473, absolute IC50, mean of two independent experiments
Procedure: The inhibitory activity of the molecules on AKT phosphorylation is measured using the MSD Multi-spot Biomarker detection technique from Meso Scale Discovery also described below. […] The primary antibody specific for […]) is coated on to an electrode in each well of the 96-well plates of the MSD kit: after the addition of a protein lysate to each well, the signal is visualized by adding a secondary detection antibody labeled with an electrochemiluminescent compound. The procedure followed is the one described in the kit. […] On day 2, the cells are incubated in the presence or absence of the test products for 1 to 2 h at 37° C. in the presence of 5% CO2. The molecules, diluted in dimethyl sulfoxide (DMSO Sigma #D2650), are added from a 20-times concentrated stock solution, the final percentage of DMSO being 0.1%. The molecules are tested either at a single concentration of less than or equal to 10 μM, or at increasing concentrations in a range that can extend from less than 1 nM to 10 μM. After this incubation, the cells are lysed for the preparation of the proteins. […] At this stage, the plates containing the lysates can be frozen at -20° C. or at -80° C. The wells of the 96 well plates of the MSD kit are saturated for 1 h at ambient temperature with the blocking solution of the MSD kit. Four washes are carried out with 150 μl of Tris Wash Buffer of the MSD kit. The lysates previously prepared are transferred into the 96-well multi-spot plates of the MSD kit and incubated for 1 h at ambient temperature, with shaking. Four washes are carried out with 150 μl of Tris Wash Buffer of the MSD kit. 25 μl of the MSD sulfo-tag detection antibody solution are added to the wells and incubated for 1 h at ambient temperature, with shaking. Four washes are carried out with 150 μl of Tris Wash Buffer of the MSD kit. 150 μl of Read Buffer of the MSD kit are added to the wells and the plates are read immediately on the S12400 instrument from Meso Scale Discovery. The instrument measures a signal for each well. Wells without cells and containing the lysis buffer serve to determine the background noise that will be subtracted from all the measurements (min). The wells containing cells in the absence of product and in the presence of 0.1% DMSO are considered to be the 100% signal (max). The percentage inhibition is calculated for each concentration of product tested, according to the following formula: (1-((test-min)/(max-min)))×100. […] Two independent experiments make it possible to calculate the mean of the IC50 values.

| SMILES | pIC50 |
| --- | --- |
| CC1CN(C(=O)Cc2nc(N3CCOCC3)cc(=O)[nH]2)c2cccc(O)c21 (single isomer, unassigned; (-)) [Example 12c, (−)-2-{2-[4-hydroxy-3-methyl-2,3-dihydro-1H-indol-1-yl]-2-oxoethyl}-6-(morpholin-4-yl)pyrimidin-4(3H)-one] | 7.24 |
| CC1Cc2c(F)cccc2N1C(=O)Cc1nc(N2CCOCC2)cc(=O)n1C (single isomer, unassigned; (-)) [Example 29c, (−)-2-{2-[4-fluoro-2-methyl-2,3-dihydro-1H-indol-1-yl]-2-oxoethyl}-3-methyl-6-(morpholin-4-yl)pyrimidin-4(3H)-one] | 7.28 |

Same assay, conditions: PC3 cells, 1 to 2 h incubation, P-AKT-S473, absolute IC50, mean of two independent experiments

| SMILES | pIC50 |
| --- | --- |
| CC1Cc2c(OC(F)F)cccc2N1C(=O)Cc1nc(N2CCOCC2)cc(=O)n1C (single isomer, unassigned; (+)) [Example 31d, (+)-2-{2-[4-(difluoromethoxy)-2-methyl-2,3-dihydro-1H-indol-1-yl]-2-oxoethyl}-3-methyl-6-(morpholin-4-yl)pyrimidin-4(3H)-one] | 6.78 |
| CC1Cc2c(Cl)cccc2N1C(=O)Cc1nc(N2CCOCC2)cc(=O)n1C (single isomer, unassigned; (+)) [Example 33c, (+)-2-{2-[4-chloro-2-methyl-2,3-dihydro-1H-indol-1-yl]-2-oxoethyl}-3-methyl-6-(morpholin-4-yl)pyrimidin-4(3H)-one] | 7.26 |
| O=C(Cc1nc(N2CCOCC2)cc(=O)[nH]1)N1c2ccccc2CC1C1CC1 (single isomer, unassigned; (+)) [Example 34d, (+)-2-[2-(2-cyclopropyl-2,3-dihydroindol-1-yl)-2-oxoethyl]-6-morpholin-4-yl-3H-pyrimidin-4-one] | 7.32 |
| CC1Cc2c(cccc2C(F)(F)F)N1C(=O)Cc1nc(N2CCOCC2)cc(=O)[nH]1 (single isomer, unassigned; (+)) [Example 36d, (+)-2-{2-[2-methyl-4-(trifluoromethyl)-2,3-dihydro-1H-indol-1-yl]-2-oxoethyl}-6-(morpholin-4-yl)pyrimidin-4(3H)-one] | 8.30 |
| CC1Cc2c(ccc(F)c2Cl)N1C(=O)Cc1nc(N2CCOCC2)cc(=O)[nH]1 (single isomer, unassigned; (+)) [Example 37c, (+)-2-{2-[4-chloro-5-fluoro-2-methyl-2,3-dihydro-1H-indol-1-yl]-2-oxoethyl}-6-(morpholin-4-yl)pyrimidin-4(3H)-one] | 8.15 |
| CCC1Cc2ccccc2N1C(=O)Cc1nc(N2CCOCC2)cc(=O)[nH]1 (single isomer, unassigned; (+)) [Example 42c, (+)-2-[2-(2-ethyl-2,3-dihydroindol-1-yl)-2-oxoethyl]-6-morpholin-4-yl-3H-pyrimidin-4-one] | 6.42 |
| CC(F)(C(=O)N1CCc2c(F)cccc21)c1nc(N2CCOCC2)cc(=O)[nH]1 (single isomer, unassigned; (+)) [Example 45c, (+)-2-[2-fluoro-1-(4-fluoro-2,3-dihydro-1H-indol-1-yl)-1-oxopropan-2-yl]-6-(morpholin-4-yl)pyrimidin-4(3H)-one] | 6.59 |
| CC1Cc2c(Cl)cccc2N1C(=O)Cc1nc(N2CCOCC2)cc(=O)[nH]1 (single isomer, unassigned; (-)) [Example 3c, (−)-2-{2-[4-chloro-2-methyl-2,3-dihydro-1H-indol-1-yl]-2-oxoethyl}-6-(morpholin-4-yl)pyrimidin-4(3H)-one] | 9.00 |
| CC1CN(c2cc(=O)[nH]c(CC(=O)N3CCc4c(F)cccc43)n2)CCO1 (single isomer, unassigned; (-)) [Example 9b, (−)-2-[2-(4-fluoro-2,3-dihydroindol-1-yl)-2-oxoethyl]-6-(2-methylmorpholin-4-yl)-3H-pyrimidin-4-one] | 6.81 |
| CC1Cc2c(O)cccc2N1C(=O)Cc1nc(N2CCOCC2)cc(=O)[nH]1 (single isomer, unassigned; (-)) [Example 10c, (−)-2-{2-[4-hydroxy-2-methyl-2,3-dihydro-1H-indol-1-yl]-2-oxoethyl}-6-(morpholin-4-yl)pyrimidin-4(3H)-one] | 7.66 |
| CC1Cc2cc(F)ccc2N1C(=O)Cc1nc(N2CCOCC2)cc(=O)[nH]1 (single isomer, unassigned; (-)) [Example 14c, (−)-2-{2-[5-fluoro-2-methyl-2,3-dihydro-1H-indol-1-yl]-2-oxoethyl}-6-(morpholin-4-yl)pyrimidin-4(3H)-one] | 8.70 |
| CC1Cc2cc(F)ccc2N1C(=O)Cc1nc(N2CCOCC2)cc(=O)n1C (single isomer, unassigned; (-)) [Example 16c, (−)-2-{2-[5-fluoro-2-methyl-2,3-dihydro-1H-indol-1-yl]-2-oxoethyl}-3-methyl-6-(morpholin-4-yl)pyrimidin-4(3H)-one] | 7.89 |
| CC1Cc2c(Br)cccc2N1C(=O)Cc1nc(N2CCOCC2)c(F)c(=O)[nH]1 (single isomer, unassigned; (-)) [Example 17a, (−)-2-{2-[4-bromo-2-methyl-2,3-dihydro-1H-indol-1-yl]-2-oxoethyl}-5-fluoro-6-(morpholin-4-yl)pyrimidin-4(3H)-one] | 7.35 |
| CC1Cc2c(ccc(F)c2F)N1C(=O)Cc1nc(N2CCOCC2)cc(=O)[nH]1 (single isomer, unassigned; (-)) [Example 18c, (−)-2-{2-[4,5-difluoro-2-methyl-2,3-dihydro-1H-indol-1-yl]-2-oxoethyl}-6-(morpholin-4-yl)pyrimidin-4(3H)-one] | 9.00 |
| CC1Cc2c(ccc(F)c2F)N1C(=O)Cc1nc(N2CCOCC2)cc(=O)n1C (single isomer, unassigned; (-)) [Example 20c, (−)-2-{2-[4,5-difluoro-2-methyl-2,3-dihydro-1H-indol-1-yl]-2-oxoethyl}-3-methyl-6-(morpholin-4-yl)pyrimidin-4(3H)-one] | 7.89 |
| CC1Cc2ccccc2N1C(=O)Cc1nc(N2CCOCC2)cc(=O)[nH]1 (single isomer, unassigned; (-)) [Example 22b, (−)-2-[2-(2-methyl-2,3-dihydroindol-1-yl)-2-oxoethyl]-6-morpholin(D8)-4-yl-3H-pyrimidin-4-one] | 8.05 |
| O=C(Cc1nc(N2CCOC(CO)C2)cc(=O)[nH]1)N1CCc2c(Cl)cccc21 (single isomer, unassigned; (-)) [Example 25b, (−)-2-[2-(4-Chloro-2,3-dihydroindol-1-yl)-2-oxoethyl]-6-(2-hydroxymethylmorpholin-4-yl)-3H-pyrimidin-4-one] | 7.57 |
| O=C(Cc1nc(N2CCOCC2)cc(=O)[nH]1)N1c2ccccc2CC1c1ccccc1 (single isomer, unassigned; (-)) [Example 25d, (−)-6-(morpholin-4-yl)-2-{2-oxo-2-[2-phenyl-2,3-dihydro-1H-indol-1-yl]ethyl}pyrimidin-4(3H)-one] | 8.30 |
| CC1Cc2c(Br)cccc2N1C(=O)Cc1nc(N2CCOCC2)cc(=O)[nH]1 (single isomer, unassigned; (-)) [Example 26c, (−)-2-{2-[4-bromo-2-methyl-2,3-dihydro-1H-indol-1-yl]-2-oxoethyl}-6-(morpholin-4-yl)pyrimidin-4(3H)-one] | 8.52 |
| CC1Cc2c(F)cccc2N1C(=O)Cc1nc(N2CCOCC2)cc(=O)[nH]1 (single isomer, unassigned; (-)) [Example 27c, (−)-2-{2-[4-fluoro-2-methyl-2,3-dihydro-1H-indol-1-yl]-2-oxoethyl}-6-(morpholin-4-yl)pyrimidin-4(3H)-one] | 8.40 |
| O=C(Cc1nc(N2CCOCC2)cc(=O)[nH]1)N1c2ccccc2CC1c1ccc(F)cc1 (single isomer, unassigned; (-)) [Example 28d, (−)-2-{2-[2-(4-fluorophenyl)-2,3-dihydro-1H-indol-1-yl]-2-oxoethyl}-6-(morpholin-4-yl)pyrimidin-4(3H)-one] | 8.70 |
| CC1Cc2c(OC(F)F)cccc2N1C(=O)Cc1nc(N2CCOCC2)cc(=O)[nH]1 (single isomer, unassigned; (-)) [Example 30d, (−)-2-{2-[4-(difluoromethoxy)-2-methyl-2,3-dihydro-1H-indol-1-yl]-2-oxoethyl}-6-(morpholin-4-yl)pyrimidin-4(3H)-one] | 8.10 |
| CC1Cc2c(Br)cccc2N1C(=O)Cc1nc(N2CCOCC2)cc(=O)n1C (single isomer, unassigned; (-)) [Example 32c, (−)-2-{2-[4-bromo-2-methyl-2,3-dihydro-1H-indol-1-yl]-2-oxoethyl}-3-methyl-6-(morpholin-4-yl)pyrimidin-4(3H)-one] | 7.85 |
